Laboratory results as given in PubChem BioAssay AID1963965 (Molecular Pharmacology Branch, DTP, NCI, 2024).

Tested on: 996289-038-R-J1-PDC spheroid viability
Experiment: Anticancer human tumor 996289-038-R-J1-PDC patient-derived colon adenocarcinoma cell line growth inhibition [PI3K]
Details: spheroids with HUVEC and MSC; for IC50: curve of first compound; for viability, T/C: stronger effect = lower value
Outline: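 Combination activity was assessed by viability in multicellular tumor spheroids carrying HUVEC and MSC components. Agents were tested with PI3K inhibitors from a Cmax-based top dose (or 10 microM) downward in half-log increments.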

[1] = second compound 0.0316 µM, first compound 0.0316 µM
[2] = second compound 0.0316 µM, first compound 0.1 µM
[3] = second compound 0.0316 µM, first compound 0.316 µM
[4] = second compound 0.0316 µM, first compound 1 µM
[5] = second compound 0.0316 µM, first compound 3.16 µM
[6] = second compound 0.0316 µM, first compound 10 µM
[7] = second compound 0.1 µM, first compound 0.0316 µM
[8] = second compound 0.1 µM, first compound 0.1 µM
[9] = second compound 0.1 µM, first compound 0.316 µM
[10] = second compound 0.1 µM, first compound 1 µM
[11] = second compound 0.1 µM, first compound 3.16 µM
[12] = second compound 0.1 µM, first compound 10 µM
[13] = second compound 0.316 µM, first compound 0.0316 µM
[14] = second compound 0.316 µM, first compound 0.1 µM
[15] = second compound 0.316 µM, first compound 0.316 µM
[16] = second compound 0.316 µM, first compound 1 µM
[17] = second compound 0.316 µM, first compound 3.16 µM
[18] = second compound 0.316 µM, first compound 10 µM
[19] = second compound 1 µM, first compound 0.0316 µM
[20] = second compound 1 µM, first compound 0.1 µM
[21] = second compound 1 µM, first compound 0.316 µM
[22] = second compound 1 µM, first compound 1 µM
[23] = second compound 1 µM, first compound 3.16 µM
[24] = second compound 1 µM, first compound 10 µM
[25] = second compound 3.16 µM, first compound 0.0316 µM
[26] = second compound 3.16 µM, first compound 0.1 µM
[27] = second compound 3.16 µM, first compound 0.316 µM
[28] = second compound 3.16 µM, first compound 1 µM
[29] = second compound 3.16 µM, first compound 3.16 µM
[30] = second compound 3.16 µM, first compound 10 µM
[31] = second compound 10 µM, first compound 0.0316 µM
[32] = second compound 10 µM, first compound 0.1 µM
[33] = second compound 10 µM, first compound 0.316 µM
[34] = second compound 10 µM, first compound 1 µM
[35] = second compound 10 µM, first compound 3.16 µM
[36] = second compound 10 µM, first compound 10 µM
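Further: spheroids exposed to compounds for seven days before viability read.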
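Wherever viability, T/C is given: luminescence used as a proxy for viable cell amount; percent viability relative to DMSO vehicle control as 100%.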

## C[C@@H](NC(=O)c1ncnc(N)c1Cl)c1ncc(C(=O)Nc2cc(C(F)(F)F)c(Cl)cn2)s1 + CC(Nc1ncnc2nc[nH]c12)c1cc2cccc(Cl)c2c(=O)n1-c1ccccc1
Second compound 0.0316 µM
  IC50: > 10 µM
Second compound 0.1 µM
  IC50: > 10 µM
Second compound 0.316 µM
  IC50: > 10 µM
Second compound 1 µM
  IC50: > 10 µM
Second compound 3.16 µM
  IC50: > 10 µM
Second compound 10 µM
  IC50: > 10 µM
[1]
  viability, T/C: 102%
[2]
  viability, T/C: 102%
[3]
  viability, T/C: 98.6%
[4]
  viability, T/C: 128%
[5]
  viability, T/C: 137%
[6]
  viability, T/C: 126%
[7]
  viability, T/C: 115%
[8]
  viability, T/C: 85.2%
[9]
  viability, T/C: 125%
[10]
  viability, T/C: 120%
[11]
  viability, T/C: 124%
[12]
  viability, T/C: 111%
[13]
  viability, T/C: 105%
[14]
  viability, T/C: 103%
[15]
  viability, T/C: 116%
[16]
  viability, T/C: 108%
[17]
  viability, T/C: 142%
[18]
  viability, T/C: 130%
[19]
  viability, T/C: 105%
[20]
  viability, T/C: 108%
[21]
  viability, T/C: 95.8%
[22]
  viability, T/C: 108%
[23]
  viability, T/C: 135%
[24]
  viability, T/C: 120%
[25]
  viability, T/C: 83.3%
[26]
  viability, T/C: 93.9%
[27]
  viability, T/C: 115%
[28]
  viability, T/C: 119%
[29]
  viability, T/C: 140%
[30]
  viability, T/C: 116%
[31]
  viability, T/C: 93.1%
[32]
  viability, T/C: 102%
[33]
  viability, T/C: 102%
[34]
  viability, T/C: 98.1%
[35]
  viability, T/C: 122%
[36]
  viability, T/C: 101%

## CC(C)NCC(C(=O)N1CCN(c2ncnc3c2C(C)CC3O)CC1)c1ccc(Cl)cc1 (stereo unspecified) + CC(Nc1ccc2c(c1)OCCn1cc(N3C(=O)OCC3C(F)F)nc1-2)C(N)=O
Second compound 0.00316 µM
  IC50: > 10 µM
Second compound 0.01 µM
  IC50: > 10 µM
Second compound 0.0316 µM
  IC50: > 10 µM
Second compound 0.1 µM
  IC50: > 10 µM
Second compound 0.316 µM
  IC50: > 10 µM
Second compound 1 µM
  IC50: > 10 µM
Second compound 0.00316 µM, first compound 0.0316 µM
  viability, T/C: 86%
Second compound 0.00316 µM, first compound 0.1 µM
  viability, T/C: 95.3%
Second compound 0.00316 µM, first compound 0.316 µM
  viability, T/C: 98.6%
Second compound 0.00316 µM, first compound 1 µM
  viability, T/C: 98.1%
Second compound 0.00316 µM, first compound 3.16 µM
  viability, T/C: 85.3%
Second compound 0.00316 µM, first compound 10 µM
  viability, T/C: 66.8%
Second compound 0.01 µM, first compound 0.0316 µM
  viability, T/C: 87.2%
Second compound 0.01 µM, first compound 0.1 µM
  viability, T/C: 88%
Second compound 0.01 µM, first compound 0.316 µM
  viability, T/C: 91.6%
Second compound 0.01 µM, first compound 1 µM
  viability, T/C: 91.8%
Second compound 0.01 µM, first compound 3.16 µM
  viability, T/C: 82.1%
Second compound 0.01 µM, first compound 10 µM
  viability, T/C: 54.7%
[1]
  viability, T/C: 105%
[2]
  viability, T/C: 91.6%
[3]
  viability, T/C: 88.7%
[4]
  viability, T/C: 88.4%
[5]
  viability, T/C: 78.5%
[6]
  viability, T/C: 53.6%
[7]
  viability, T/C: 79.8%
[8]
  viability, T/C: 71.1%
[9]
  viability, T/C: 76%
[10]
  viability, T/C: 80%
[11]
  viability, T/C: 62%
[12]
  viability, T/C: 67.5%
[13]
  viability, T/C: 57.9%
[14]
  viability, T/C: 81.2%
[15]
  viability, T/C: 64.3%
[16]
  viability, T/C: 65%
[17]
  viability, T/C: 73.7%
[18]
  viability, T/C: 46%
[19]
  viability, T/C: 64.9%
[20]
  viability, T/C: 57.1%
[21]
  viability, T/C: 53.5%
[22]
  viability, T/C: 55.3%
[23]
  viability, T/C: 52.5%
[24]
  viability, T/C: 53.5%

## CNC(=O)c1ccc(N2C(=S)N(c3ccc(C#N)c(C(F)(F)F)c3)C(=O)C2(C)C)cc1F + Cc1nc(NC(=O)N2CCCC2C(N)=O)sc1-c1ccnc(C(C)(C)C(F)(F)F)c1
Second compound 0.0316 µM
  IC50: > 10 µM
Second compound 0.1 µM
  IC50: > 10 µM
Second compound 0.316 µM
  IC50: > 10 µM
Second compound 1 µM
  IC50: > 10 µM
Second compound 3.16 µM
  IC50: > 10 µM
Second compound 10 µM
  IC50: < 0.0316 µM
[1]
  viability, T/C: 92%
[2]
  viability, T/C: 95.8%
[3]
  viability, T/C: 92.2%
[4]
  viability, T/C: 92.3%
[5]
  viability, T/C: 93.8%
[6]
  viability, T/C: 90.4%
[7]
  viability, T/C: 92.9%
[8]
  viability, T/C: 82.7%
[9]
  viability, T/C: 97.2%
[10]
  viability, T/C: 83.3%
[11]
  viability, T/C: 95.2%
[12]
  viability, T/C: 90.3%
[13]
  viability, T/C: 90.9%
[14]
  viability, T/C: 81%
[15]
  viability, T/C: 88.4%
[16]
  viability, T/C: 84.8%
[17]
  viability, T/C: 73.9%
[18]
  viability, T/C: 96.5%
[19]
  viability, T/C: 75.6%
[20]
  viability, T/C: 76.9%
[21]
  viability, T/C: 69.7%
[22]
  viability, T/C: 79.9%
[23]
  viability, T/C: 80.7%
[24]
  viability, T/C: 70.8%
[25]
  viability, T/C: 65.5%
[26]
  viability, T/C: 64.7%
[27]
  viability, T/C: 58.9%
[28]
  viability, T/C: 52.4%
[29]
  viability, T/C: 61.5%
[30]
  viability, T/C: 51.3%
[31]
  viability, T/C: 39.9%
[32]
  viability, T/C: 46.9%
[33]
  viability, T/C: 49.6%
[34]
  viability, T/C: 38.9%
[35]
  viability, T/C: 48.3%
[36]
  viability, T/C: 36.8%
